Data taken from patent US20070053883A1, “Neuronal cell lineages and methods of production thereof” (THE JOHNS HOPKINS UNIVERSITY, priority 2003, published 2007).
Entries after “also recorded” stand apart in the source; their conditions may differ.

What was measured:
[1] = system: Hh pathway; assay: Shh signaling assay in NIH3T3 Shh-LIGHT Z3 cells (Gli luciferase reporter); assay type: cell-based
Experimental: (§1) Shh signaling assays. Shh signaling assays were carried out as described^16 in primary fibroblasts lacking functional Dhcr7, Sc5d or Ptch and in NIH3T3 fibroblasts. Dhcr7^−/− and Dhcr7^+/− MEFs were generated from embryonic day-9 mutant mice and Sc5h1 and Sc5d^−/− and Sc5d^+/− MEFs from embryonic day-14.5 mutant mice. We generated a reporter construct with firefly luciferase and Gli (pGL3-8xGli-luciferase) by cloning eight tandem Gli-binding sites and a lens crystallin promoter from the 8xGli-BS Luc construct^22 into the pGL3-Basic vector (Promega). We determined relative Hh pathway activity in Dhcr7^−/−, Dhcr7^+/−, Sc5d^+/+ and Sc5d^+/− MEFs from the expression of transiently transfected pGL3-8xGli-luciferase and control Renilla luciferase (pRL-SV40; Promega) vectors. In Ptch^−/− MEFs, we normalized β-galactosidase activity expressed under the control of the Ptch promoter for protein levels to determine relative Hh pathway activity. In the NIH3T3 cell clone Shh-LIGHT Z3, we normalized 8xGli-BS luciferase activity for β-galactosidase activity from stably transfected vectors (8xGli-BS Luc^22 and piZ-lacZ). We established clonal sublines of Shh-LIGHT Z3 by cotransfecting either Smo tagged with Myc epitope or SmoA1 with vector encoding G418 resistance (pGT; Invivogen). All transfections were done with Fugene 6. We carried out cyclodextrin treatments for 30 min with methyl-β-cyclodextrin (Sigma) dissolved in Dulbecco's modified Eagle medium, preceded and followed by two washes with phosphate-buffered saline. Fetal bovine serum was depleted of lipids as described^23. We purchased compactin as an active sodium salt form of mevastatin (Biomol) and dissolved it in dimethylsulfoxide.
(§2) The combination of transient cyclodextrin treatment followed by inhibition of cholesterol synthesis blocked the response to ShhNp, whereas neither treatment alone did so. FIG. 4c, Hh path way inhibition persisted for 72 h after cyclodextrin treatment. The 3-d recovery period was intended to allow replenishment of non-sterol cellular components depleted by transient cyclodextrin treatment while maintaining sterol depletion with HMG-CoA reductase inhibition by compactin. FIG. 4d, Total cellular sterols from parallel cultures of NIH3T3 (c, 36 h), Dhcr7^−/− and Sc5d^−/− (FIG. 3b) MEFs were determined by gas chromatography-mass spectrometry analysis of extracted lipids and plotted against the relative Shh pathway activity. Bars represent one standard error (quadruplicate wells).

[2] = system: Hh pathway; assay: Response of cells to ShhNp protein under sterol-specific perturbations (data not shown); assay type: cell-based
Source text: Cyclodextrins form complexes with hydrophobic compounds including proteins and phospholipids in addition to sterols^6.

[3] = system: Hh pathway; assay: Shh signaling assay in Dhcr7 and Sc5d MEFs (Hh-responsive firefly luciferase reporter); assay type: cell-based, mouse
Experimental: Shh signaling assays. Shh signaling assays were carried out as described^16 in primary fibroblasts lacking functional Dhcr7, Sc5d or Ptch and in NIH3T3 fibroblasts. Dhcr7^−/− and Dhcr7^+/− MEFs were generated from embryonic day-9 mutant mice and Sc5h1 and Sc5d^−/− and Sc5d^+/− MEFs from embryonic day-14.5 mutant mice. We generated a reporter construct with firefly luciferase and Gli (pGL3-8xGli-luciferase) by cloning eight tandem Gli-binding sites and a lens crystallin promoter from the 8xGli-BS Luc construct^22 into the pGL3-Basic vector (Promega). We determined relative Hh pathway activity in Dhcr7^−/−, Dhcr7^+/−, Sc5d^+/+ and Sc5d^+/− MEFs from the expression of transiently transfected pGL3-8xGli-luciferase and control Renilla luciferase (pRL-SV40; Promega) vectors. […]
The effect of cholesterol depletion on responsiveness of Dhcr7^+/− (gray bars), Dhcr7^−/− (maroon bars), Sc5d^+/− (gray bars), and Sc5d^−/− (green bars) MEFs to Shh signaling was assayed by transfection with a Hh-responsive firefly luciferase reporter and treatment with purified ShhNp (10 nM). […] For each culture condition, normalized firefly luciferase activity from control and ShhNp treated cells was used to calculate the relative induction, expressed as a percentage of the Shh induction achieved in MEFs cultured in full serum. […]

[4] = system: chick neural-plate explants; assay: Chick neural-plate explants induced with ShhN, stained for HNF3β or lSL1; assay type: cell-based
Experimental: (§3) Chick embryos. Methyl-β-cyclodextrin (200 μl of a 10% w/v solution in L-15 medium (Sigma and Life Technologies)) was applied to windowed, fertile chick eggs (White Leghorn) after 15 h of incubation. For an average egg volume of 50 ml, the final concentration of cyclodextrin was 375 μM. After 4 d of further incubation, we processed the embryos for scanning electron microscopy. The neural plate and epidermal ectoderm was dissected from stage 9-10 chick embryos, cultured them in collagen and induced them with purified Sonic Hh N-terminal peptide ShbN^21 as described^3. Methyl-β-cyclodextrin was added to the chick explant cultures 4 h after induction with ShhN was initiated.
It was further investigated whether SSH signaling in embryonic tissues by exposing chick neural-plate explants to recombinant Shh protein (ShhN, 30 nm) in the presence of cyclodextrin (FIG. 2b). FIG. 2b provides confocal microscope images of stage 9-10 chick embryo ectoderm dissected from a region of the neural plate intermediate to the notochord and roof plate and just rostral to Hensen's node. Explants were cultured for 48 h in collagen and stained for HNF3β or lSL1, as indicated.

[5] = system: neural-crest cells; assay: BMP-induced migration of neural-crest cells from dorsal neural plate explants; assay type: cell-based, chick; conditions: 400 μM cyclodextrin alone, 48 h of culture
Experimental: as §3
Dorsal neural plate progenitor cells and an endogenous source of BMP, the adjacent epidermal ectoderm, were dissected from a region just rostral to Hensen's node in stage 9-10 chick embryos.

[6] = target: T1, Smo (Mus musculus, UniProt P56726); assay: Shh pathway activation by overexpression of wild-type Smo in NIH3T3 cells; assay type: cell-based; conditions: cholesterol depletion by cyclodextrin and compactin treatments
T1 construct: expressed in transfected cells
T1 sequence (P56726 33-793): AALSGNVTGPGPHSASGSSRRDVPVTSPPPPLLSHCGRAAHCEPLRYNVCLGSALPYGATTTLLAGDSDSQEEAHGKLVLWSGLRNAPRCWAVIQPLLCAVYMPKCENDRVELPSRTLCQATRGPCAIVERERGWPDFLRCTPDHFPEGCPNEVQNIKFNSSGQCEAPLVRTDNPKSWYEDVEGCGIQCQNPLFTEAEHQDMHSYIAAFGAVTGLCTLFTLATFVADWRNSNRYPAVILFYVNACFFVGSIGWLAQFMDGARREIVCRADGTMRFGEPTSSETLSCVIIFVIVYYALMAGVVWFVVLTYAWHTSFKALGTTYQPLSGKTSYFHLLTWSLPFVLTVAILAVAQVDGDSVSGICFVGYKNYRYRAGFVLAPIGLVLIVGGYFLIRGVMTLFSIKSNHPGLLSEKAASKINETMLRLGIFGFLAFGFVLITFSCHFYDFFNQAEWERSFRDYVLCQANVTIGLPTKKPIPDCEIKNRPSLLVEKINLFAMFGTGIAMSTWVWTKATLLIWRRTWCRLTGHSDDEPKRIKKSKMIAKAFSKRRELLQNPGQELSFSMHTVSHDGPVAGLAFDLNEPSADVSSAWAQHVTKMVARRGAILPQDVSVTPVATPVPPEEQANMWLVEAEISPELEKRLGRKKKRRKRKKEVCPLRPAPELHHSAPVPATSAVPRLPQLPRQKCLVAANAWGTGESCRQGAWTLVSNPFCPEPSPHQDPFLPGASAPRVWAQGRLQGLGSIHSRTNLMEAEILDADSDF
Experimental: as §1, with “We carried out cyclodextrin treatments for 30 min with methyl-β-cyclodextrin (Sigma) dissolved in Dulbecco's modified Eagle medium, preceded and followed by two washes with phosphate-buffered saline. Fetal bovine serum was depleted of lipids as described^23. We purchased compactin as an active sodium salt form of mevastatin (Biomol) and dissolved it in dimethylsulfoxide.” left out

[7] = system: chick embryos; assay: Cyclodextrin treatment of chick embryos in ovo, facial features by scanning electron microscopy; assay type: in vivo; conditions: 375 μM cyclodextrin in ovo, applied after 15 h of incubation, early-primitive-streak stage, embryonic day 5
Experimental: as §3
To determine how cholesterol may affect Hh signaling in embryonic development, chick embryos were exposed to cyclodextrin, a cyclic oligosaccharide that forms non-covalent complexes with sterols and can be used to extract and deplete cholesterol from living cells. […] The most severely affected embryos developed a proboscis-like structure that phenocopies the nasal rudiments of mouse embryos that are homozygous with respect to mutations in the gene Sonic hedgehog (Shh; ref. 8).
FIG. 2a provides scanning electron micrographs of facial features at embryonic day 5 of a control (control) chick embryo and of embryos exposed to 375 μM cyclodextrin (CD). […]

[8] = system: Hh pathway downstream of Ptch; assay: Constitutive Hh pathway activity in Ptch−/− MEFs (β-galactosidase); assay type: cell-based, mouse; conditions: transient treatment with increasing concentrations of cyclodextrin in combination with compactin
Experimental: as §1, with “We carried out cyclodextrin treatments for 30 min with methyl-β-cyclodextrin (Sigma) dissolved in Dulbecco's modified Eagle medium, preceded and followed by two washes with phosphate-buffered saline. Fetal bovine serum was depleted of lipids as described^23. We purchased compactin as an active sodium salt form of mevastatin (Biomol) and dissolved it in dimethylsulfoxide.” left out

[9] = system: Dhcr7−/− and Sc5d−/− MEFs; assay: Sterol analysis of MEFs cultured in parallel with signaling assays; assay type: cell-based, mouse; conditions: lipid-depleted serum
Experimental: Sterol analysis. Neutral sterols were extracted and analyzed as described^24 from replicate wells of MEFs cultured in parallel with those used for signaling assays.
as §2

[10] = target: T2, SmoA1 (Mus musculus, UniProt P56726, W539L); assay: Shh pathway activity driven by oncogenic Smo (SmoA1, W539L) in NIH3T3 cells; assay type: cell-based; conditions: cholesterol depletion by cyclodextrin and compactin treatments
T2 construct: expressed in transfected cells
T2 sequence (P56726 33-793 W539L): as the sequence (P56726 33-793) above, with W507L counted along it
Experimental: as §1, with “We carried out cyclodextrin treatments for 30 min with methyl-β-cyclodextrin (Sigma) dissolved in Dulbecco's modified Eagle medium, preceded and followed by two washes with phosphate-buffered saline. Fetal bovine serum was depleted of lipids as described^23. We purchased compactin as an active sodium salt form of mevastatin (Biomol) and dissolved it in dimethylsulfoxide.” left out

[11] = system: Shh autoprocessing; assay: Analysis of Shh protein biogenesis (autoprocessing) in MEFs; assay type: cell-based, mouse; conditions: Dhcr7−/− or Sc5d−/− MEFs; transient (30 min, 3.8 mM) cyclodextrin treatment, lipid-depleted serum
Experimental: Analysis of Shh protein biogenesis. MEFs were plated in a 10-cm^2 dish (Falcon) and transfected them (Fugene 6, Roche) with a full length Shh expression construct (pRK5-Shh, 5 μg) when the cells were roughly 75% confluent. The next day, we changed the culture medium (Dulbecco's modified Eagle medium with 10% fetal bovine serum) to contain either 0.5% fetal bovine serum, 0.5% lipid-depleted serum or lipid-depleted serum after a 30-min treatment with 3.8 mM methyl-β-cyclodextrin (Sigma). After an additional 24 h in culture, we lysed the MEFs in RIPA buffer (50 mM Tris-C1, pH 7.5, 150 mM NaCl, 1% Nonidet P-40, 0.5% sodium deoxycholate, 1 mM EDTA, 1 μg ml^−1 leupeptin, 1 μg ml aprotinin^−1, 0.2 mM phenylmethylsulfonyl fluoride), immunoprecipitated Shh protein from the cell lysates with a monoclonal antibody that recognizes the N-terminal signaling domain (5E1, Developmental Studies Hybridoma Bank) and immunoblotted them with a polyclonal antibody preparation (JH134). […]

[12] = 400 μM cyclodextrin, 30 nM ShhN, 48 h

CC[C@H](C)C(=O)O[C@H]1CCC=C2C=C[C@H](C)[C@H](CC[C@@H]3C[C@@H](O)CC(=O)O3)[C@H]21 [compactin]
ShhNp response under compactin alone ([1]; continuous exposure to compactin): not affected

CCCCC[C@@H](O)[C@H]1C(=O)O[C@H](C)[C@@H](O)/C=C/C=C/C=C/C=C/C=C(\C)[C@@H](O)C[C@H](O)C[C@H](O)C[C@H](O)C[C@H](O)C[C@H](O)C[C@@H]1O [filipin]
response of cells to ShhNp protein [2]: blocked

C[C@@H]1[C@H](O)[C@@H](C)/C=C/C=C/CC/C=C/C=C/C=C/C=C/C(O[C@H]2O[C@H](C)[C@@H](O)[C@H](N)[C@@H]2O)CC2O[C@](O)(CC(O)C(O)CCC(O)CC(O)CC(O)CC(=O)O[C@H]1C)CC(O)C2C(=O)O (stereo partly shown) [nystatin]
response of cells to ShhNp protein [2]: blocked

Methyl-β-cyclodextrin
ability to respond to Shh signal ([3]; Dhcr7 and Sc5d mutant MEFs, transient 30-min cyclodextrin, lipid-depleted medium, ShhNp 10 nM): clear deficiencies in their ability to respond to Shh signal
response to ShhNp stimulation ([3]; cells heterozygous for Dhcr7 and Sc5d mutations, all growth conditions incl. transient cyclodextrin): normal response
HNF3β and lSL1 marker expression ([4]; 200 μM cyclodextrin, 30 nM ShhN, 48 h): both HNF3μ and lSL1 were expressed
high-threshold response to ShhN (HNF3β) [4, 12]: blocked
lSL1 expression (intermediate-threshold response, motor-neuron fate) [4, 12]: substantially uniform expression of lSL1
differentiation of neural plate explant cells as motor neurons ([4]; 400 μM β-methyl CD in conjunction with 30 nM ShhN): all cells
cellular response to Shh protein (FIG. 2b) ([4]; cyclodextrin treatment, concentration not given in legend): inhibited the cellular response to Shh protein
BMP-induced migration of neural-crest cells [5]: did not inhibit
inhibition of Shh signal response ([1]; continuous treatment with 500 μM cyclodextrin): about 50%
inhibition of Shh signal response ([1]; continuous treatment with 2 mM cyclodextrin): nearly complete inhibition
response to Shh signaling under chronic cyclodextrin ([1]; cyclodextrin in culture medium for the duration of ShhNp induction, comparable to 5 μM cyclopamine): dose dependent manner; also recorded: inhibited
Shh signal response, transient cyclodextrin combined with continuous compactin ([1]; transient cyclodextrin before ShhNp induction, then compactin during induction): blocked; also recorded: inhibited
persistence of Hh pathway inhibition after cyclodextrin treatment ([1]; transient cyclodextrin, sterol depletion maintained with compactin): 72 h
ShhNp response after transient cyclodextrin alone ([1]; transient treatment for 30 minutes before ShhNp, even at 15 mM cyclodextrin): did not affect response
Shh pathway activation by overexpressed wild-type Smo [6]: inhibited
developmental malformation of facial and midline structures [7]: variable loss of midline tissues
developmental malformation of facial and midline structures ([7]; listed as Cyclodextrin): variable loss of the frontonasal process and other midline structures; also recorded: holoprosencephaly
constitutive Hh pathway activity in Ptch−/− fibroblasts [8]: dose-dependent reduction
constitutive Hh pathway activity in Ptch−/− fibroblasts ([8]; listed as Cyclodextrin): blocked
sterol levels after initial transient cyclodextrin treatment, needed to affect pathway response [9]: below 40 μg mg^−1 protein
Shh pathway activity driven by SmoA1 [10]: resistant to inhibition
Shh autoprocessing [11]: no observable effect
